# Columns and labels:
# TAF1-BD2 = TAF1-BD2 (Homo sapiens, UniProt P21675); assay: TAF1-BD2 TR-FRET Binding Assay; conditions: read-out: TAF1-BD2 HTRF IC50
# TAF1-BD1 = TAF1-BD1 (Homo sapiens, UniProt P21675); assay: TAF1-BD1 TR-FRET Binding Assay; conditions: read-out: TAF1-BD1 HTRF IC50
SMILES,IC50 (TAF1-BD2) [nM],IC50 (TAF1-BD1) [nM]
"CC(=O)c1c(C)n(C)c2c(=O)[nH]cc(C#CC(C)(C)O)c12 [Example 199b, 3-acetyl-4-(3-hydroxy-3-methyl-but-1-ynyl)-1,2-dimethyl-6H-pyrrolo[2,3-c]pyridin-7-one]",20000,20000
"Cc1[nH]c2c(=O)n(C)cc(C#CC(C)(C)O)c2c1C(=O)O [Example 200, 4-(3-hydroxy-3-methyl-but-1-ynyl)-2,6-dimethyl-7-oxo-1H-pyrrolo[2,3-c]pyridine-3-carboxylic acid]",13700,20000
"Cc1[nH]c2c(=O)n(C)cc(C#CC(C)(C)O)c2c1C1=NC(C(C)C)CO1 (stereo not shown) [Example 202, 4-(3-hydroxy-3-methyl-but-1-ynyl)-3-(4-isopropyl-4,5-dihydrooxazol-2-yl)-2,6-dimethyl-1H-pyrrolo[2,3-c]pyridin-7-one]",176,1230
"Cc1[nH]c2c(=O)n(C)cc(C#CC(C)(O)C3CC3)c2c1C1=NC(C(C)C)CO1 (stereo not shown) [Example 203, 4-(3-cyclopropyl-3-hydroxy-but-1-ynyl)-3-(4-isopropyl-4,5-dihydrooxazol-2-yl)-2,6-dimethyl-1H-pyrrolo[2,3-c]pyridin-7-one]",307,1120
"Cc1[nH]c2c(=O)n(C)cc(C#CC(C)(O)C3CC3)c2c1C1=NCC(C)(C)O1 (stereo not shown) [Example 204, 4-(3-cyclopropyl-3-hydroxy-but-1-ynyl)-3-(5,5-dimethyl-4H-oxazol-2-yl)-2,6-dimethyl-1H-pyrrolo[2,3-c]pyridin-7-one]",147,1030
"Cc1[nH]c2c(=O)n(C)cc(C#CC(O)(c3ccccc3)C(F)(F)F)c2c1-c1nnc(CO)o1 (stereo not shown) [Example 205, 3-(5-(hydroxymethyl)-1,3,4-oxadiazol-2-yl)-2,6-dimethyl-4-(4,4,4-trifluoro-3-hydroxy-3-phenyl-but-1-ynyl)-1H-pyrrolo[2,3-c]pyridin-7-one]",88.8,334
"CCOC(=O)c1c(C2CC2)[nH]c2c(=O)n(C)cc(C#CC(C)(C)O)c12 [Example 207, ethyl 2-cyclopropyl-4-(3-hydroxy-3-methyl-but-1-ynyl)-6-methyl-7-oxo-1H-pyrrolo[2,3-c]pyridine-3-carboxylate]",353,957
"CCOC(=O)c1c(C)[nH]c2c(=O)n(C)cc(C#CC(O)(c3cccc(N4CCOCC4)c3)C(F)(F)F)c12 (stereo not shown) [Example 208, ethyl 2,6-dimethyl-7-oxo-4-[4,4,4-trifluoro-3-hydroxy-3-(3-morpholinophenyl)but-1-ynyl]-1H-pyrrolo[2,3-c]pyridine-3-carboxylate]",79.5,438
